This note sets out measurements from paper PMC3128102, “A Single Sex Pheromone Receptor Determines Chemical Response Specificity of Sexual Behavior in the Silkmoth Bombyx mori” (PLoS Genetics, 2011).

Structures are written as SMILES.

In assay [1] the target is T1, PxOR1 coexpressed with BmOR2 (Plutella xylostella, UniProt B5MEK0).
T1 construct: coexpressed in Xenopus oocytes; mixed-species heteromeric OR complex, PxOR1 of Plutella xylostella with BmOR2 of Bombyx mori; with Odorant receptor coreceptor (Bombyx mori)
T1 sequence (B5MEK0 1-422): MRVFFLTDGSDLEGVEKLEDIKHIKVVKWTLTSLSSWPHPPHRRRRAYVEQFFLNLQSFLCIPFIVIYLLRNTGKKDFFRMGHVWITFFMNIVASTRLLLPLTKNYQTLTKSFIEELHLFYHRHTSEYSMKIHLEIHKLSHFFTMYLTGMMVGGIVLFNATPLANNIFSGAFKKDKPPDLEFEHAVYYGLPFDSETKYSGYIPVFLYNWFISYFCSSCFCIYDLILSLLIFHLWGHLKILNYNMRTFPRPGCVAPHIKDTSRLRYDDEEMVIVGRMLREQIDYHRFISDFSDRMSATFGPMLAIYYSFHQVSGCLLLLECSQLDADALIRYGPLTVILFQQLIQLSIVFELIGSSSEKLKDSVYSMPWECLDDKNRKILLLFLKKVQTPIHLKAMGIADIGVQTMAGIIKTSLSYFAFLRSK
Kind of assay: electrophysiology, agonist-induced current in Xenopus oocytes. Format: cell-based. The settings on record: PxOR1 with Bombyx mori co-receptor BmOR2, applied sequentially to same oocyte, n = 10, read-out: 50% effective concentration. From the text: electrophysiology, agonist-induced current in Xenopus oocytes on PxOR1 coexpressed with BmOR2 | PxOR1 with PxOR83 and PxOR1 with BmOR2, respectively

The target of assay [2] is T2, PxOR1 coexpressed with PxOR83 (Plutella xylostella, UniProt B5MEK0).
T2 construct: coexpressed in Xenopus oocytes; heteromeric OR complex; with Odorant receptor coreceptor
T2 sequence (B5MEK0 1-422): T1 sequence (B5MEK0 1-422)
T2 sequence (D0EZE1 1-471 partner): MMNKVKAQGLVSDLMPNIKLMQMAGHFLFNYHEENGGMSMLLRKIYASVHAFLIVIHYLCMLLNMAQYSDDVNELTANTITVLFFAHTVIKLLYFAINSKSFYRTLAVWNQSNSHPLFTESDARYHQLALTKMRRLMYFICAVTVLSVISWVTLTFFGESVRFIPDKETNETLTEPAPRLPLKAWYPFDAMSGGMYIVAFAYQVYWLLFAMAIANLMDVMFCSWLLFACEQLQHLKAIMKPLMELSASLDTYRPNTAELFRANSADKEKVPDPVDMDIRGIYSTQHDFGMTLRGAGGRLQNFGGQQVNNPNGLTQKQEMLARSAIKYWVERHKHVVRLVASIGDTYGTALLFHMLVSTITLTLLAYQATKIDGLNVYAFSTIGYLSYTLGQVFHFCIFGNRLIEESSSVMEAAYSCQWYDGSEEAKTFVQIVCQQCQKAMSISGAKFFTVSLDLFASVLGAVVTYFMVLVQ
Described as above. Format: cell-based. Particulars: read-out: 50% effective concentration.

Turning to `CCCC/C=C\CCCCCCCCCC=O` [Z11-16:Ald, (Z)-11-hexadecenal], the EC50 in assay [1] came to 1200 nM; in assay [2], 420 nM.
